# According to US11414379B2, “SPAK kinase inhibitors as neuroprotective agents” (United States Government as represented by the Department …, priority 2018, dated 2022):
# Key:
# Assay in all cases: Kinase panel (Dundee profiling)
# Assay type in all cases: biochemical
# [1] = target: CDK2-Cyclin A (Homo sapiens, UniProt P24941); settings: read-out: % residual kinase activity
# Outline: (§1)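 Radioisotopic enzymatic activity assay across a panel of 140 recombinant kinases, with test compound at 10 and 1 μM. Values are % residual kinase activity relative to DMSO control, mean±SEM, n=3.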
# [2] = target: CDK9-Cyclin T1 (Homo sapiens, UniProt P50750); settings: read-out: % residual kinase activity
# Chain of CDK9-Cyclin T1 (P50750 whole entry): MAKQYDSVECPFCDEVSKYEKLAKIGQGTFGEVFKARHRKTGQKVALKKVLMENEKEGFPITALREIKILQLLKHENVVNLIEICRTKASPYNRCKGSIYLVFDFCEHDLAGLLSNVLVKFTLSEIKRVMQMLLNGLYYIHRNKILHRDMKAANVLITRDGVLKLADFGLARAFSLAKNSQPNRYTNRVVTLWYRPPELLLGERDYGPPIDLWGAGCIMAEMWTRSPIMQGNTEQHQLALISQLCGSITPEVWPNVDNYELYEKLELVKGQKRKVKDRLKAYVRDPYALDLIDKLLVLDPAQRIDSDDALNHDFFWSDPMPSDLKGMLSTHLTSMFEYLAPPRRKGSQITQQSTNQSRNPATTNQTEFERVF
# Chain of CDK9-Cyclin T1 (O60563 whole entry partner): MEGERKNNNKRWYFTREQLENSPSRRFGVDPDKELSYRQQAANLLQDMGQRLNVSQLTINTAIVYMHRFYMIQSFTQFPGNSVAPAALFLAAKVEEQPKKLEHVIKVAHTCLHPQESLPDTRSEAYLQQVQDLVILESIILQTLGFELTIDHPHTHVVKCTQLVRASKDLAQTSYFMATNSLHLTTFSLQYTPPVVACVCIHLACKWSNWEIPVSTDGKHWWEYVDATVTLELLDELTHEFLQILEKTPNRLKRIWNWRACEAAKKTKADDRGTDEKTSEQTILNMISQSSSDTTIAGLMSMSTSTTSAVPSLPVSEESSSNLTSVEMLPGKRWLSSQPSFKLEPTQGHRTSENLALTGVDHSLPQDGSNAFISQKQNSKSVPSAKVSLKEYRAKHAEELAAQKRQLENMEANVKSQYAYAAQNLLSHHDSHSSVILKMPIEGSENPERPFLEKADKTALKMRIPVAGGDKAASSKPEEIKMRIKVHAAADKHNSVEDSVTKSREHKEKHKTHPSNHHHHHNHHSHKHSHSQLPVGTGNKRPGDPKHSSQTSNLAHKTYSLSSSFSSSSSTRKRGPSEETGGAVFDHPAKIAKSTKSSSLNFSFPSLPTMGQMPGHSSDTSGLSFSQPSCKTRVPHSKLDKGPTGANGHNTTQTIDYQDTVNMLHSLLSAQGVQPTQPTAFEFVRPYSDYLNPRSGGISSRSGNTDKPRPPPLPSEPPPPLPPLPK
# Outline: as §1
# [3] = target: CK1γ2 (Homo sapiens, UniProt P78368); settings: read-out: % residual kinase activity
# Outline: as §1
# [4] = target: EPH-B2 (Homo sapiens, UniProt P29323); settings: read-out: % residual kinase activity
# Outline: as §1
# [5] = target: EPH-B4 (Homo sapiens, UniProt P54760); settings: read-out: % residual kinase activity
# Chain of EPH-B4 (P54760 16-987, species assumed): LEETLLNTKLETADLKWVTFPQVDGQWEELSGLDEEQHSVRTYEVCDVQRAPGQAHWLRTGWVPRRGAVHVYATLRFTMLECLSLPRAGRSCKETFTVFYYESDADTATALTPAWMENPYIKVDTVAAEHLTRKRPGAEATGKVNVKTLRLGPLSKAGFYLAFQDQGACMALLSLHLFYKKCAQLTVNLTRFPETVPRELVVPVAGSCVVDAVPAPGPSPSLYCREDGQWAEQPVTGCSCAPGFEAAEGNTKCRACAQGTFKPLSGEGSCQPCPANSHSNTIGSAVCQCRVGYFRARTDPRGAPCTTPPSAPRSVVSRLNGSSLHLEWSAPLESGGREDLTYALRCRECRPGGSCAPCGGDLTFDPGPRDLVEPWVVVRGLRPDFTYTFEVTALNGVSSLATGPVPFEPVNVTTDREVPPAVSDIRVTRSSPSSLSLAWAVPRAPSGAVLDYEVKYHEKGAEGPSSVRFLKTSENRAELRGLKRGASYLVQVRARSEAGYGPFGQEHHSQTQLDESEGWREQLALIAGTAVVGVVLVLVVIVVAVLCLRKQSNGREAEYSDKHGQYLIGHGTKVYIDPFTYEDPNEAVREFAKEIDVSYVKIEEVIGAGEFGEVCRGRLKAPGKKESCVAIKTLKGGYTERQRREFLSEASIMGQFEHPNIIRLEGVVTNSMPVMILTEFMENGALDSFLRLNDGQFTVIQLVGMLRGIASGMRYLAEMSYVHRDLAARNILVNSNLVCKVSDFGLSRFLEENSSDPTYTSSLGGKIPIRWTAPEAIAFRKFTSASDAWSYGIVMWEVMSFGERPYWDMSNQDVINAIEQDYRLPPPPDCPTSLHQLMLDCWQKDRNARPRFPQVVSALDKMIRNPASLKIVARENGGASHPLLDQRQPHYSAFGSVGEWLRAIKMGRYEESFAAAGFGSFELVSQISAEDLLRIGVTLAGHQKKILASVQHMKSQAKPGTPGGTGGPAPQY
# Outline: as §1
# [6] = target: ERK1 (Homo sapiens, UniProt P27361); settings: read-out: % residual kinase activity
# Outline: as §1
# [7] = target: GSK3b (Homo sapiens, UniProt P49841); settings: read-out: % residual kinase activity
# Chain of GSK3b (P49841 whole entry, species assumed): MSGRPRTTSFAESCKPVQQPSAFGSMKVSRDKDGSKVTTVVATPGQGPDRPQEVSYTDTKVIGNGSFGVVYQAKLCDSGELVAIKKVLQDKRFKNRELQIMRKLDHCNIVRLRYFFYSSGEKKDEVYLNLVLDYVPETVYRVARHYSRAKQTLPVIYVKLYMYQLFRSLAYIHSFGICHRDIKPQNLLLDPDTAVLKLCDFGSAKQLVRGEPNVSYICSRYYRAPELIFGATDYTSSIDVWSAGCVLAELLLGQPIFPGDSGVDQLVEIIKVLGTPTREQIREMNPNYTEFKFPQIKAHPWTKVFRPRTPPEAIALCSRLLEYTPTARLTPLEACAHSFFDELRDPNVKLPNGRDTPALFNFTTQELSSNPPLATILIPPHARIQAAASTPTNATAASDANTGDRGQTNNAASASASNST
# Outline: as §1
# [8] = target: HIPK3 (Homo sapiens, UniProt Q9H422); settings: read-out: % residual kinase activity
# Outline: as §1
# [9] = target: IRAK1 (Homo sapiens, UniProt P51617); settings: read-out: % residual kinase activity
# Chain of IRAK1 (P51617 whole entry, species assumed): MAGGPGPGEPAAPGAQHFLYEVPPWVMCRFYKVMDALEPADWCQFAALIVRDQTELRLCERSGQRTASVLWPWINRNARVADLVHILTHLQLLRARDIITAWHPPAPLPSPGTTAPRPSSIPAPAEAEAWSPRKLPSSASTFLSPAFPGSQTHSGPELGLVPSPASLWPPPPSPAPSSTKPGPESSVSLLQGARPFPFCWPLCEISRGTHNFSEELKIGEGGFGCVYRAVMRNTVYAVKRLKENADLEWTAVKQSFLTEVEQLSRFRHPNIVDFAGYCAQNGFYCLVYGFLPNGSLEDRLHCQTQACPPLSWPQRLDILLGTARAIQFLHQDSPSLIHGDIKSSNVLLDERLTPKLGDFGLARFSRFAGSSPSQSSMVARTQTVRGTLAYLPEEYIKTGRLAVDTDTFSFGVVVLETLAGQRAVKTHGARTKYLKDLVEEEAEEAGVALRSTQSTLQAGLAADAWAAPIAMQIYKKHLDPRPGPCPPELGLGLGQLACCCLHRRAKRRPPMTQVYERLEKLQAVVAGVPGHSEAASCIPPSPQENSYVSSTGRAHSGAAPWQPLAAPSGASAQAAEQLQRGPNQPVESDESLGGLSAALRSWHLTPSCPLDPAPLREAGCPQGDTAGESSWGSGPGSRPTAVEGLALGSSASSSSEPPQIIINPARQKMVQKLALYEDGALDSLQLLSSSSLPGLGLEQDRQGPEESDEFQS
# Outline: as §1
# [10] = target: JAK2 (Homo sapiens, UniProt O60674); settings: read-out: % residual kinase activity
# Outline: as §1
# [11] = target: MAPKAP-K2 (Homo sapiens, UniProt P49137)
# Chain of MAPKAP-K2 (P49137 whole entry, species assumed): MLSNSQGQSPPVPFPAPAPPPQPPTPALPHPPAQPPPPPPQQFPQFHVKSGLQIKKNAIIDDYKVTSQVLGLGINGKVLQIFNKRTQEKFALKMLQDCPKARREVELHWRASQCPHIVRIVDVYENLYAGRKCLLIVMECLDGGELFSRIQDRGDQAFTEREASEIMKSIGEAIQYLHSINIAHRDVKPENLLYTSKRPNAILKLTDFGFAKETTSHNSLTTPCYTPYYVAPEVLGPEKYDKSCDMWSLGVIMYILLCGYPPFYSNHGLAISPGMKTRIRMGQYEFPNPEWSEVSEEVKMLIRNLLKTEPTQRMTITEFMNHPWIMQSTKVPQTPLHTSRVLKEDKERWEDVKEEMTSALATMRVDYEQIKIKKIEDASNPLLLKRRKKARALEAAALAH
# Outline: as §1
# [12] = target: MARK3 (Homo sapiens, UniProt P27448); settings: read-out: % residual kinase activity
# Outline: as §1
# [13] = target: MEKK1 (Homo sapiens, UniProt Q13233); settings: read-out: % residual kinase activity
# Outline: as §1
# [14] = target: MELK (Homo sapiens, UniProt Q14680); settings: read-out: % residual kinase activity
# Outline: as §1
# [15] = target: MSK1 (Homo sapiens, UniProt O75582); settings: read-out: % residual kinase activity
# Outline: as §1
# [16] = target: PAK6 (Homo sapiens, UniProt Q9NQU5); settings: read-out: % residual kinase activity
# Outline: as §1
# [17] = target: PDGFRA (Homo sapiens, UniProt P16234); settings: read-out: % residual kinase activity
# Outline: as §1
# [18] = target: PIM2 (Homo sapiens, UniProt Q9P1W9); settings: read-out: % residual kinase activity
# Outline: as §1
# [19] = target: PLK1 (Homo sapiens, UniProt P53350); settings: read-out: % residual kinase activity
# Outline: as §1
# [20] = target: RIPK2 (Homo sapiens, UniProt O43353); settings: read-out: % residual kinase activity
# Outline: as §1
# [21] = target: RSK1 (Homo sapiens, UniProt Q15418); settings: read-out: % residual kinase activity
# Outline: as §1
# [22] = target: RSK2 (Homo sapiens, UniProt P51812); settings: read-out: % residual kinase activity
# Outline: as §1
# [23] = target: SGK1 (Homo sapiens, UniProt O00141); settings: read-out: % residual kinase activity
# Outline: as §1
# [24] = target: SIK3 (Homo sapiens, UniProt Q9Y2K2); settings: read-out: % residual kinase activity
# Outline: as §1
# [25] = target: STK33 (Homo sapiens, UniProt Q9BYT3); settings: read-out: % residual kinase activity
# Chain of STK33 (Q9BYT3 whole entry, species assumed): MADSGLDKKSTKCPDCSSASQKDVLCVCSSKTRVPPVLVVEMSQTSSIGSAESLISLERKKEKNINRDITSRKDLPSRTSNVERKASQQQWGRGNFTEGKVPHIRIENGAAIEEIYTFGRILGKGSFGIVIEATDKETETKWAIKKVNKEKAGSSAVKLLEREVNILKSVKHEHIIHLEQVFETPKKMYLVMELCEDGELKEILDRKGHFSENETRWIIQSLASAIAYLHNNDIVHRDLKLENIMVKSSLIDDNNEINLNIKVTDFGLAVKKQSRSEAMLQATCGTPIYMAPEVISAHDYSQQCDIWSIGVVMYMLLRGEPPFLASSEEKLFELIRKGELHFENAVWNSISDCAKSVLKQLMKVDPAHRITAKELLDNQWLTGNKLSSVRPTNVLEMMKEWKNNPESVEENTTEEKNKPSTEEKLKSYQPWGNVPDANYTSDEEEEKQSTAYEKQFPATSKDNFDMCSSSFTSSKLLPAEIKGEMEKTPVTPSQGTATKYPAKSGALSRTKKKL
# Outline: as §1
# [26] = target: TESK1 (Homo sapiens, UniProt Q15569); settings: read-out: % residual kinase activity
# Chain of TESK1 (Q15569 whole entry, species assumed): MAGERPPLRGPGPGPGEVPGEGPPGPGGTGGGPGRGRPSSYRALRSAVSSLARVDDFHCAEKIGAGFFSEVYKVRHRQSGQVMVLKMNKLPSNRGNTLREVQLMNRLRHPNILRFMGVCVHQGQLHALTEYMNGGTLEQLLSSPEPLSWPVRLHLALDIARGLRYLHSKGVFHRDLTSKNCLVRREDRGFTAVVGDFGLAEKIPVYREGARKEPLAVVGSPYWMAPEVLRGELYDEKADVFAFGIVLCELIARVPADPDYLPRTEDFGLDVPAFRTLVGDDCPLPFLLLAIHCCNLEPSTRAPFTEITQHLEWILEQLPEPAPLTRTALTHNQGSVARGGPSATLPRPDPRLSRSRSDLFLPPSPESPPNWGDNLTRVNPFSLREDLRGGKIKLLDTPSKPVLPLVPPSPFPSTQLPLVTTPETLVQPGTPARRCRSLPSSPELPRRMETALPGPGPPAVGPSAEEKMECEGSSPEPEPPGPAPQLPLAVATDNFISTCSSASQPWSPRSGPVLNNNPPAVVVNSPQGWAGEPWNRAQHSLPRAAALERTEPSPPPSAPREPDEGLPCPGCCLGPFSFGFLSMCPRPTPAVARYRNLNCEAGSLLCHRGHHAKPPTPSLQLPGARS
# Outline: as §1
# [27] = target: TSSK1 (Homo sapiens, UniProt Q9BXA7); settings: read-out: % residual kinase activity
# Outline: as §1
# [28] = target: TTBK1 (Homo sapiens, UniProt Q5TCY1); settings: read-out: % residual kinase activity
# Outline: as §1
# [29] = target: VEG-FR (Homo sapiens, UniProt P17948); settings: read-out: % residual kinase activity
# Outline: as §1
# [30] = target: WNK1 (Homo sapiens, UniProt Q9H4A3); settings: read-out: % residual kinase activity
# Outline: as §1
# [31] = target: p38b MAPK (Homo sapiens, UniProt Q15759); settings: read-out: % residual kinase activity
# Outline: as §1
smiles,measurement,setting,value
"Cc1cc(C(C#N)c2ccc(Cl)cc2)c(Cl)cc1NC(=O)c1cc(Cl)ccc1O (stereo not drawn) [ZT-1a, 5-chloro-N-(5-chloro-4-((4-chlorophenyl)(cyano)methyl)-2-methylphenyl)-2-hydroxy-benzamide]",remaining activity at 1 µM,[1]; 1 μM,128 ± 12%
same,remaining activity at 10 µM,[1]; 10 μM,125 ± 6%
same,remaining activity at 1 µM,[2]; 1 μM,104%
same,remaining activity at 10 µM,[2]; 10 μM,108 ± 1%
same,remaining activity at 1 µM,[3]; 1 μM,112 ± 12%
same,remaining activity at 10 µM,[3]; 10 μM,124 ± 23%
same,remaining activity at 1 µM,[4]; 1 μM,77 ± 2%
same,remaining activity at 10 µM,[4]; 10 μM,81 ± 8%
same,remaining activity at 1 µM,[5]; 1 μM,100 ± 8%
same,remaining activity at 10 µM,[5]; 10 μM,151 ± 33%
same,remaining activity at 1 µM,[6]; 1 μM,107 ± 16%
same,remaining activity at 10 µM,[6]; 10 μM,109 ± 18%
same,remaining activity at 1 µM,[7]; 1 μM,39 ± 4%
same,remaining activity at 10 µM,[7]; 10 μM,38 ± 12%
same,remaining activity at 1 µM,[8]; 1 μM,84 ± 3%
same,remaining activity at 10 µM,[8]; 10 μM,76 ± 2%
same,remaining activity at 1 µM,[9]; 1 μM,128 ± 2%
same,remaining activity at 10 µM,[9]; 10 μM,95 ± 7%
same,remaining activity at 1 µM,[10]; 1 μM,125 ± 6%
same,remaining activity at 10 µM,[10]; 10 μM,123 ± 8%
same,inhibition at 10 µM,"[11]; 10 μM, read-out: inhibition of MAPKAP-K2 activity compared to DMSO control",85 ± 7%
same,remaining activity at 1 µM,"[11]; MAPKAP-K2, 1 μM, read-out: % residual kinase activity",91 ± 13%
same,remaining activity at 10 µM,"[11]; MAPKAP-K2, 10 μM, read-out: % residual kinase activity",13 ± 7%
same,remaining activity at 1 µM,[12]; 1 μM,71 ± 6%
same,remaining activity at 10 µM,[12]; 10 μM,68 ± 8%
same,remaining activity at 1 µM,[13]; 1 μM,109 ± 1%
same,remaining activity at 10 µM,[13]; 10 μM,93 ± 16%
same,remaining activity at 1 µM,[14]; 1 μM,130 ± 34%
same,remaining activity at 10 µM,[14]; 10 μM,63 ± 3%
same,remaining activity at 1 µM,[15]; 1 μM,114 ± 6%
same,remaining activity at 10 µM,[15]; 10 μM,112 ± 14%
same,remaining activity at 1 µM,[16]; 1 μM,69 ± 2%
same,remaining activity at 10 µM,[16]; 10 μM,75 ± 4%
same,remaining activity at 1 µM,[17]; 1 μM,84 ± 11%
same,remaining activity at 10 µM,[17]; 10 μM,80 ± 7%
same,remaining activity at 1 µM,[18]; 1 μM,93 ± 5%
same,remaining activity at 10 µM,[18]; 10 μM,93 ± 3%
same,remaining activity at 1 µM,[19]; 1 μM,72 ± 1%
same,remaining activity at 10 µM,[19]; 10 μM,93 ± 21%
same,remaining activity at 1 µM,[20]; 1 μM,128 ± 5%
same,remaining activity at 10 µM,[20]; 10 μM,120 ± 3%
same,remaining activity at 1 µM,[21]; 1 μM,95 ± 2%
same,remaining activity at 10 µM,[21]; 10 μM,87 ± 4%
same,remaining activity at 1 µM,[22]; 1 μM,116 ± 5%
same,remaining activity at 10 µM,[22]; 10 μM,101 ± 3%
same,remaining activity at 1 µM,[23]; 1 μM,73 ± 14%
same,remaining activity at 10 µM,[23]; 10 μM,58 ± 5%
same,remaining activity at 1 µM,[24]; 1 μM,104 ± 9%
same,remaining activity at 10 µM,[24]; 10 μM,88%
same,remaining activity at 1 µM,[25]; 1 μM,114 ± 7%
same,remaining activity at 10 µM,[25]; 10 μM,100 ± 5%
same,remaining activity at 1 µM,[26]; 1 μM,109 ± 3%
same,remaining activity at 10 µM,[26]; 10 μM,77 ± 10%
same,remaining activity at 1 µM,[27]; 1 μM,99 ± 2%
same,remaining activity at 10 µM,[27]; 10 μM,74 ± 6%
same,remaining activity at 1 µM,[28]; 1 μM,119 ± 5%
same,remaining activity at 10 µM,[28]; 10 μM,102 ± 2%
same,remaining activity at 1 µM,[29]; 1 μM,113 ± 10%
same,remaining activity at 10 µM,[29]; 10 μM,88 ± 28%
same,remaining activity at 1 µM,[30]; 1 μM,125 ± 17%
same,remaining activity at 10 µM,[30]; 10 μM,122 ± 35%
same,remaining activity at 1 µM,[31]; 1 μM,124 ± 1%
same,remaining activity at 10 µM,[31]; 10 μM,124%
